# pIC50: −log10 of the molar value.
# Target: T1, HCV NS3/4A protease complex, BMS strain (UniProt P27958, species not given/STRAIN_BMS)
# T1 construct: said of H77 and J4L6S, not expressly of BMS; These are given for the H77 and J4L6S constructs only
# Assay: FRET peptide assay to monitor HCV NS3/4A proteolytic activity (BMS strain)
# Assay type: biochemical, HCV genotype 1a
# Details: NS3/4A BMS strain; read-out: IC50 Activity Range
# Text: HCV NS3 protease complexes, derived from the BMS strain, H77 strain or J4L6S strain, were generated, as described below. These purified recombinant proteins were generated for use in a homogeneous assay (see below) to provide an indication of how effective compounds of the present disclosure would be in inhibiting HCV NS3 proteolytic activity.
# Serum from an HCV-infected patient was obtained from Dr. T. Wright, San Francisco Hospital. An engineered full-length cDNA (compliment deoxyribonucleic acid) template of the HCV genome (BMS strain) was constructed from DNA fragments obtained by reverse transcription-PCR (RT-PCR) of serum RNA (ribonucleic acid) and using primers selected on the basis of homology between other genotype 1a strains. From the determination of the entire genome sequence, a genotype 1a was assigned to the HCV isolate according to the classification of Simmonds et al. (See P Simmonds, K A Rose, S Graham, S W Chan, F McOmish, B C Dow, E A Follett, P L Yap and H Marsden, J. Clin. Microbiol., 31(6), 1493-1503 (1993)). […] The infectious clones, H77 (1a genotype) and J4L6S (1b genotype) were obtained from R. Purcell (NIH) and the sequences are published in Genbank (AAB67036, see Yanagi, M., Purcell, R. H., Emerson, S. U. and Bukh, J. Proc. Natl. Acad. Sci. U.S.A. 94(16),8738-8743 (1997); AF054247, see Yanagi, M., St Claire, M., Shapiro, M., Emerson, S. U., Purcell, R. H. and Bukh, J, Virology 244 (1), 161-172. (1998)).
# NS3/4A protease complex-containing fractions were pooled and loaded on a desalting column Superdex-S200 pre-equilibrated with buffer D (25 mM HEPES, pH 7.5, 20% glycerol, 300 mM NaCl, 0.2% Triton X-100, 10 mM βME). Sample was loaded at a flow rate of 1 mL/min. NS3/4A protease complex-containing fractions were pooled and concentrated to approximately 0.5 mg/ml. The purity of the NS3/4A protease complexes, derived from the BMS, H77 and J4L6S strains, were judged to be greater than 90% by SDS-PAGE and mass spectrometry analyses. The enzyme was stored at −80° C., thawed on ice and diluted prior to use in assay buffer.
# The purpose of this in vitro assay was to measure the inhibition of HCV NS3 protease complexes, derived from the BMS strain, H77 strain or J4L6S strain, as described above, by compounds of the present disclosure. This assay provides an indication of how effective compounds of the present disclosure would be in inhibiting HCV NS3 proteolytic activity.
# In order to monitor HCV NS3/4A protease activity, an NS3/4A peptide substrate was used. The substrate was RET SI (Resonance Energy Transfer Depsipeptide Substrate; AnaSpec, Inc. cat #22991) (FRET peptide), described by Taliani et al. in Anal. Biochem. 240(2):60-67 (1996). […] The peptide also contains a fluorescence donor, EDANS, near one end of the peptide and an acceptor, DABCYL, near the other end. The fluorescence of the peptide is quenched by […] resonance energy transfer (RET) between the donor and the acceptor, but as the NS3 protease cleaves the peptide the products are released from RET quenching and the fluorescence of the donor becomes apparent.
# The peptide substrate was incubated with one of the three recombinant NS3/4A protease complexes, in the absence or presence of a compound of the present disclosure. The inhibitory effects of a compound was determined by monitoring the formation of fluorescent reaction product in real time using a Cytofluor Series 4000. […]
# T1 sequence (P27958 1027-1657, change not shown, one chain of several): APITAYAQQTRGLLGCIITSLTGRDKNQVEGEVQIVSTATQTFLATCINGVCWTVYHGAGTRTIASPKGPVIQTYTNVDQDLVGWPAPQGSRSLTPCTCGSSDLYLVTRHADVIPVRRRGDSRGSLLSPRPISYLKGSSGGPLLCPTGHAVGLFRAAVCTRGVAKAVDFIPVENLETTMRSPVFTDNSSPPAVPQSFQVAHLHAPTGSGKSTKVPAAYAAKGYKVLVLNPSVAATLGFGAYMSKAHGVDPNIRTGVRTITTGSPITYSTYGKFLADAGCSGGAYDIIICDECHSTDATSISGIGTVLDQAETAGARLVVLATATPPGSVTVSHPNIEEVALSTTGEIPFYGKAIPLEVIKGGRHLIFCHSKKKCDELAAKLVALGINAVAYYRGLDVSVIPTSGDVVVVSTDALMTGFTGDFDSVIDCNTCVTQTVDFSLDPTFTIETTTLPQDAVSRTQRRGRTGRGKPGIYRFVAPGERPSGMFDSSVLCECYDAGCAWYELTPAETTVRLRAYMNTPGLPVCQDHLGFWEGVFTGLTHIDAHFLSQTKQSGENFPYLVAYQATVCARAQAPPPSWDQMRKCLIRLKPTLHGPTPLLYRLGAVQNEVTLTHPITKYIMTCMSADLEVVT
structure (smiles),measurement,value
COc1c(O[C@@H]2C[C@H]3C(=O)N[C@]4(C(=O)NS(=O)(=O)C5CC5)C[C@H]4/C=C\CCCCC[C@H](NC(=O)OC(C)(C)C)C(=O)N3C2)ccc2c(Cl)nccc12 [Compound 3],pIC50,> 7.00

# — patent publication US20080107623A1, “Inhibitors of Hepatitis C Virus” (Bristol-Myers Squibb Company, priority 2006, published 2008)
